Results on three compounds are retold here after paper PMC11096083 (Cancer research, 2024).

The target of assay [1] is T1, HSD3B7 (Homo sapiens, UniProt Q9H2F3).
T1 sequence (Q9H2F3 1-369): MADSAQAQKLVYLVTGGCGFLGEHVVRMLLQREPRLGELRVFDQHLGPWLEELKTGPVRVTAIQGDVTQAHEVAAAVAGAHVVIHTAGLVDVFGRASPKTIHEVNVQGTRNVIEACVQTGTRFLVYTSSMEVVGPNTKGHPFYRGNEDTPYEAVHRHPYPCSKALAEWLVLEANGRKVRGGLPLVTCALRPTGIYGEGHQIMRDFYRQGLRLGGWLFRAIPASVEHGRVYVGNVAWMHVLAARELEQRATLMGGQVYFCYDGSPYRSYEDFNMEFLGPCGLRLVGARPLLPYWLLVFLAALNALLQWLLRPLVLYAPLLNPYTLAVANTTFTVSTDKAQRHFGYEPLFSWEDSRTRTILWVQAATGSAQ
Briefly: recombinant HSD3B7 activity by NAD+ reduction to NADH. In kind it is biochemical.

Assay [2] has as its target T1, HSD3B7. The assay can be described thus: recombinant HSD3B7 NAD. In kind it is biochemical.

With `NC(=O)c1ccc[n+]([C@@H]2O[C@H](COP(=O)([O-])OP(=O)(O)OC[C@H]3O[C@@H](n4cnc5c(N)ncnc54)[C@H](O)[C@@H]3O)[C@@H](O)[C@H]2O)c1` [NAD+], the “recombinant HSD3B7 activity by NAD+ reduction to NADH (fluorescence)” value in assay [1] was “recombinant human HSD3B7 protein, whose enzymatic activity was assessed by monitoring fluorescence induced by NAD^+ reduction to NADH”.

For `CC1=C(O)C(=O)C=C2C1=CC=C1[C@@]2(C)CC[C@@]2(C)[C@@H]3C[C@](C)(C(=O)O)CC[C@]3(C)CC[C@]12C` [celastrol], the IC50 entry in assay [2] was “low micromolar”.

Take `COc1ccc(-c2cc(=O)c3c(O)cc(O)c(-c4cc(-c5cc(=O)c6c(O)cc(O)cc6o5)ccc4OC)c3o2)cc1` [isoginkgetin]: the IC50 entry in assay [2] is “low micromolar”.
